Measured values: patent publication US20240424111A1, “Degrader Compounds and Uses Thereof” (CALICO LIFE SCIENCES LLC, priority 2021, published 2024)

What was measured:
PTPN2 [1] = target: T1, PTPN2 (Homo sapiens, UniProt P17706); test: HiBiT PTPN2 degradation in 293T.109 (HiBiT-PTPN2) cells, 24 hours; assay type: cell-based; details: 293T.109 cells
T1 construct: expressed in transfected cells; host or cells: 293T.109 (HiBiT-PTPN2), derived from 293T WT (ATCC)
T1 sequence (P17706 1-415): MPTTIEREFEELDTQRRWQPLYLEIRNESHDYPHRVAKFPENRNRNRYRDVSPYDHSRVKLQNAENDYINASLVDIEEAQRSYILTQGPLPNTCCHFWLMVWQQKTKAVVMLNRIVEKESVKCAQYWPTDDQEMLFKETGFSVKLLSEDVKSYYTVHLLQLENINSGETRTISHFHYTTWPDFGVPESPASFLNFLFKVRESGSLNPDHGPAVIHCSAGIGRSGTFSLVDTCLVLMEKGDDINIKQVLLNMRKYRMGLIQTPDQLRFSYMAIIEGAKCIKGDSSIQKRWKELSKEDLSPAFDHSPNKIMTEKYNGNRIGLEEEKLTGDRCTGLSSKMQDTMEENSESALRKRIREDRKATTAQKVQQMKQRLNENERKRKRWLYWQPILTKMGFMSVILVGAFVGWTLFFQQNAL
Source text: Dulbecco's modified Eagle medium (DMEM) without phenol red and fetal bovine serum (FBS) were purchased from Gibco (Grand Island, NY, USA). Nano-Glo® HiBiT Lytic Assay System was purchased from Promega (Medison, WI, USA). 293T. 109 (HiBiT-PTPN2) cell line was generated by ectopically expressing PTPN2 with N-terminal HiBiT fusion tag in 293T WT cell line purchased from ATCC (Manassas, VA, USA). Cell culture flasks and 384-well microplates were acquired from VWR (Radnor, PA, USA).
PTPN2 Degradation Analysis
(§1) PTPN2 degradation was determined based on quantification of luminescent signal using Nano-Glo® HiBiT Lytic Assay kit. Test compounds were added to the 384-well plate from a top concentration of 10 μM with 11 points, half log titration in duplicates. 293T. 109 cells were added into 384-well plates at a cell density of 5000 cells per well. The plates were kept at 37° C. with 5% CO2 for 24 hours. The cells treated in the absence of the test compound were the negative control and the cells without Nano-Glo® HiBiT Lytic reagent were the positive control. After 24-hour incubation, Nano-Glo® HiBiT Lytic Assay reagents were added to the cells. Luminescence was acquired on EnVision™ Multilabel Reader (PerkinElmer, Santa Clara, CA, USA).

PTPN2 [2] = target: T2, PTPN2 (Mus musculus, UniProt Q06180); test: HiBiT PTPN2 degradation in B16F10.4 cells, 24 hours; assay type: cell-based
T2 construct: HiBiT; host or cells: B16F10.4
T2 sequence (Q06180 1-406): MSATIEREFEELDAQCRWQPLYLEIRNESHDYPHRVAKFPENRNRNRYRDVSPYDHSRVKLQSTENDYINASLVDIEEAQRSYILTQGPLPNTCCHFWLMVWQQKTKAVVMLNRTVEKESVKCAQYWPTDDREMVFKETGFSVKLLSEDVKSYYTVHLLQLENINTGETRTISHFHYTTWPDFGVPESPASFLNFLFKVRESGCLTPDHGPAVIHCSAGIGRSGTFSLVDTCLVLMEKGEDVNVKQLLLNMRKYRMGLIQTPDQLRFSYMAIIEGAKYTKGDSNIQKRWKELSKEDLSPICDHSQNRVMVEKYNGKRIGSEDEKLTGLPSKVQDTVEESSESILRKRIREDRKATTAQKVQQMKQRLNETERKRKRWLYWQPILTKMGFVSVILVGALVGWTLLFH
Description: as §1

Row | DC50 (PTPN2 [1]) [nM] | DC50 (PTPN2 [2]) [nM] | SMILES
1 | 50 to 150 | 50 to 150 | C[C@@H](C(=O)Nc1ccc2c(F)c(N3CC(=O)NS3(=O)=O)c(O)cc2c1)N1CCC(c2ccc3c(c2)n(C)c(=O)n3C2CCC(=O)NC2=O)CC1 (single isomer, unassigned) [Degrader 104]
2 | 50 to 150 | 150 to 500 | Cn1c(=O)n(C2CCC(=O)NC2=O)c2ccc([C@H]3CCN(CC(=O)Nc4ccc5c(F)c(N6CC(=O)NS6(=O)=O)c(O)cc5c4)C3)cc21 (single isomer, unassigned) [Degrader 123]
3 | 150 to 500 | 150 to 500 | CCn1c(=O)n(C2CCC(=O)NC2=O)c2ccc([C@H]3CCN(CC(=O)Nc4ccc5c(F)c(N6CC(=O)NS6(=O)=O)c(O)cc5c4)C[C@@H]3F)cc21 (single isomer, unassigned) [Degrader 130]
4 | < 50 | < 50 | Cc1nn(CC(=O)Nc2ccc3c(F)c(N4CC(=O)NS4(=O)=O)c(O)cc3c2)c(C)c1-c1ccc2c(C3CCC(=O)NC3=O)nn(C)c2c1 (stereo not drawn) [Degrader 1]
5 | < 50 | 50 to 150 | Cn1c(=O)n(C2CCC(=O)NC2=O)c2ccc(C3CCN(CC4CC(C(=O)Nc5ccc6c(F)c(N7CC(=O)NS7(=O)=O)c(O)cc6c5)C4)CC3)cc21 (stereo not drawn) [Degrader 6]
6 | < 50 | 150 to 500 | Cn1c(=O)n(C2CCC(=O)NC2=O)c2ccc(C3CCN(CCC(C)(C)CCOc4ccc5cc(O)c(N6CC(=O)NS6(=O)=O)c(F)c5c4)CC3)cc21 (stereo not drawn) [Degrader 7]
7 | 50 to 150 | 50 to 150 | Cn1c(=O)n(C2CCC(=O)NC2=O)c2ccc(N3CCC(CCC(=O)Nc4ccc5c(F)c(N6CC(=O)NS6(=O)=O)c(O)cc5c4)CC3)cc21 (stereo not drawn) [Degrader 8]
8 | 150 to 500 | 150 to 500 | O=C1CCC(n2c(=O)n(C3COC3)c3cc(C4CCN(CC(=O)Nc5ccc6c(F)c(N7CC(=O)NS7(=O)=O)c(O)cc6c5)CC4)ccc32)C(=O)N1 (stereo not drawn) [Degrader 9]
9 | 50 to 150 | 150 to 500 | Cn1c(=O)n(C2CCC(=O)NC2=O)c2ccc(C3CCN(CC(=O)N4CCC(Oc5ccc6cc(O)c(N7CC(=O)NS7(=O)=O)c(F)c6c5)CC4)CC3(F)F)cc21 (stereo not drawn) [Degrader 10]
10 | 50 to 150 | 150 to 500 | CCn1nc(C2CCC(=O)NC2=O)c2ccc(C3CCN(CC(=O)Nc4ccc5c(F)c(N6CC(=O)NS6(=O)=O)c(O)cc5c4)CC3(F)F)cc21 (stereo not drawn) [Degrader 11]
11 | < 50 | 50 to 150 | CCn1nc(C2CCC(=O)NC2=O)c2ccc(C3CCN(CC(=O)N4CC(Oc5ccc6cc(O)c(N7CC(=O)NS7(=O)=O)c(F)c6c5)C4)CC3(F)F)cc21 (stereo not drawn) [Degrader 12]
12 | 50 to 150 | 50 to 150 | CC(C)n1nc(C2CCC(=O)NC2=O)c2ccc(C3CCN(CC(=O)N4CC(Oc5ccc6cc(O)c(N7CC(=O)NS7(=O)=O)c(F)c6c5)C4)CC3(F)F)cc21 (stereo not drawn) [Degrader 13]
13 | 50 to 150 | 150 to 500 | Cn1c(=O)n(C2CCC(=O)NC2=O)c2ccc(C3CCN(CC4CC4C(=O)N4CC(Oc5ccc6cc(O)c(N7CC(=O)NS7(=O)=O)c(F)c6c5)C4)CC3)cc21 (stereo not drawn) [Degrader 14]
14 | 150 to 500 | ≥ 500 | Cn1c(=O)n(C2CCC(=O)NC2=O)c2ccc([C@@H]3CCN(CC(=O)N4CC(Oc5ccc6cc(O)c(N7CC(=O)NS7(=O)=O)c(F)c6c5)C4)C3)cc21 (stereo partly drawn) [Degrader 16]
15 | 50 to 150 | 150 to 500 | Cn1c(=O)n(C2CCC(=O)NC2=O)c2ccc(C3CCN(CC4CC4C(=O)N4CC[C@H](c5ccc6cc(O)c(N7CC(=O)NS7(=O)=O)c(F)c6c5)C4)CC3)cc21 (stereo partly drawn) [Degrader 17]
16 | 50 to 150 | 150 to 500 | Cn1c(=O)n(C2CCC(=O)NC2=O)c2ccc(C3CCN(CC4CC4C(=O)N4CC[C@@H](c5ccc6cc(O)c(N7CC(=O)NS7(=O)=O)c(F)c6c5)C4)CC3)cc21 (stereo partly drawn) [Degrader 18]
17 | < 50 | 50 to 150 | Cn1c(=O)n(C2CCC(=O)NC2=O)c2ccc(N3CCC(CC(=O)Nc4ccc5c(F)c(N6CC(=O)NS6(=O)=O)c(O)cc5c4)CC3)cc21 (stereo not drawn) [Degrader 19]
18 | 50 to 150 | 50 to 150 | Cn1c(=O)n([C@H]2CCC(=O)NC2=O)c2ccc(N3CCC(CC(=O)Nc4ccc5c(F)c(N6CC(=O)NS6(=O)=O)c(O)cc5c4)CC3)cc21 [Degrader 20]

Row | DC50 (PTPN2 [1]) [nM] | DC50 (PTPN2 [2]) [nM] | SMILES
19 | 50 to 150 | 50 to 150 | Cn1c(=O)n([C@@H]2CCC(=O)NC2=O)c2ccc(N3CCC(CC(=O)Nc4ccc5c(F)c(N6CC(=O)NS6(=O)=O)c(O)cc5c4)CC3)cc21 [Degrader 21]
20 | 50 to 150 | 50 to 150 | CCn1c(=O)n(C2CCC(=O)NC2=O)c2ccc(N3CCC(CC(=O)Nc4ccc5c(F)c(N6CC(=O)NS6(=O)=O)c(O)cc5c4)CC3)cc21 (stereo not drawn) [Degrader 22]
21 | 150 to 500 | 150 to 500 | C[C@H]1CN(CC(=O)Nc2ccc3c(F)c(N4CC(=O)NS4(=O)=O)c(O)cc3c2)CCN1c1ccc2c(c1)n(C)c(=O)n2C1CCC(=O)NC1=O (stereo partly drawn) [Degrader 23]
22 | 50 to 150 | 50 to 150 | C[C@@H]1CN(CC(=O)Nc2ccc3c(F)c(N4CC(=O)NS4(=O)=O)c(O)cc3c2)CCN1c1ccc2c(c1)n(C)c(=O)n2C1CCC(=O)NC1=O (stereo partly drawn) [Degrader 24]
23 | < 50 | < 50 | Cn1c(=O)n(C2CCC(=O)NC2=O)c2ccc(-c3ccc(CC(=O)Nc4ccc5c(F)c(N6CC(=O)NS6(=O)=O)c(O)cc5c4)cc3)cc21 (stereo not drawn) [Degrader 25]
24 | 50 to 150 | < 50 | Cn1c(=O)n([C@@H]2CCC(=O)NC2=O)c2ccc(-c3ccc(CC(=O)Nc4ccc5c(F)c(N6CC(=O)NS6(=O)=O)c(O)cc5c4)cc3)cc21 [Degrader 26]
25 | 50 to 150 | < 50 | Cn1c(=O)n([C@H]2CCC(=O)NC2=O)c2ccc(-c3ccc(CC(=O)Nc4ccc5c(F)c(N6CC(=O)NS6(=O)=O)c(O)cc5c4)cc3)cc21 [Degrader 27]
26 | 50 to 150 | < 50 | Cc1cc(CC(=O)Nc2ccc3c(F)c(N4CC(=O)NS4(=O)=O)c(O)cc3c2)ccc1-c1ccc2c(c1)n(C)c(=O)n2C1CCC(=O)NC1=O (stereo not drawn) [Degrader 28]
27 | 50 to 150 | < 50 | Cn1c(=O)n(C2CCC(=O)NC2=O)c2ccc(-c3ccc4c(cnn4CC(=O)Nc4ccc5c(F)c(N6CC(=O)NS6(=O)=O)c(O)cc5c4)c3)cc21 (stereo not drawn) [Degrader 29]
28 | < 50 | 150 to 500 | Cn1nc(C2CCC(=O)NC2=O)c2ccc(C3CCN(C4CC(C(=O)Nc5ccc6c(F)c(N7CC(=O)NS7(=O)=O)c(O)cc6c5)C4)CC3)cc21 (stereo not drawn) [Degrader 30]
29 | 50 to 150 | 50 to 150 | Cn1c(=O)n(C2CCC(=O)NC2=O)c2ccc(-c3ccn(CC(=O)Nc4ccc5c(F)c(N6CC(=O)NS6(=O)=O)c(O)cc5c4)c(=O)c3)cc21 (stereo not drawn) [Degrader 32]
30 | 50 to 150 | 50 to 150 | Cn1c(=O)n(C2CCC(=O)NC2=O)c2ccc(-c3ccc(CC(=O)Nc4ccc5c(F)c(N6CC(=O)NS6(=O)=O)c(O)cc5c4)c(F)c3)cc21 (stereo not drawn) [Degrader 33]
31 | ≥ 500 | ≥ 500 | Cn1c(=O)n(C2CCC(=O)NC2=O)c2ccc(CC3CCN(C(=O)Nc4ccc5c(F)c(N6CC(=O)NS6(=O)=O)c(O)cc5c4)CC3)cc21 (stereo not drawn) [Degrader 34]
32 | ≥ 500 | 150 to 500 | CC(C)n1c(=O)n(C2CCC(=O)NC2=O)c2ccc(N3CCC(CC(=O)Nc4ccc5c(F)c(N6CC(=O)NS6(=O)=O)c(O)cc5c4)CC3)cc21 (stereo not drawn) [Degrader 35]
33 | < 50 | < 50 | Cn1c(=O)n(C2CCC(=O)NC2=O)c2ccc(C3CCN(CC(=O)Nc4ccc5c(F)c(N6CC(=O)NS6(=O)=O)c(O)cc5c4)CC3F)cc21 (stereo not drawn) [Degrader 36]
34 | 50 to 150 | 50 to 150 | Cn1c(=O)n(C2CCC(=O)NC2=O)c2ccc([C@H]3CCN(CC(=O)Nc4ccc5c(F)c(N6CC(=O)NS6(=O)=O)c(O)cc5c4)C[C@@H]3F)cc21 (stereo partly drawn) [Degrader 37]
35 | < 50 | < 50 | Cn1c(=O)n(C2CCC(=O)NC2=O)c2ccc([C@@H]3CCN(CC(=O)Nc4ccc5c(F)c(N6CC(=O)NS6(=O)=O)c(O)cc5c4)C[C@H]3F)cc21 (stereo partly drawn) [Degrader 38]
36 | 50 to 150 | 150 to 500 | Cn1nc(C2CCC(=O)NC2=O)c2ccc(Oc3ccc(CC(=O)Nc4ccc5c(F)c(N6CC(=O)NS6(=O)=O)c(O)cc5c4)cc3)cc21 (stereo not drawn) [Degrader 39]
